Data as given in ChEMBL document CHEMBL6083206, “SLL-1A-16 suppresses proliferation and induces autophagy in non-small-cell lung cancer cells via the AKT/mTOR signaling pathway” (RSC Med Chem, 2024).
The source made the active and inactive calls. No cut-off for these calls is given here.

Columns and labels:
[1] = tested on: BGC-823; assay: Antiproliferative activity against human BGC-823 cells assessed as inhibition of cell proliferation at 3 to 300 uM incubated for 48 hrs by CCK8 assay; type: functional, cell-based; conditions: dose 3-300 µM
[2] = tested on: A549; assay: Inhibition of colony formation in human A549 cells at 10 to 30 uM incubated for 24 hrs by giemsa staining based analysis; type: functional, cell-based; conditions: dose 10-30 µM
[3] = tested on: A549; assay: Cell cycle arrest in human A549 cells assessed as accumulation of cells at G1 phase at 10 uM incubated for 24 hrs by PI staining based flow cytometric analysis (reference value: 56.42 +/- 1.36 %); type: functional
[4] = tested on: NCI-H460; assay: Cell cycle arrest in human NCI-H460 cells assessed as accumulation of cells at G1-S phase at 10 to 30 uM incubated for 24 hrs by PI staining based flow cytometric analysis; type: functional; conditions: dose 10-30 µM
[5] = tested on: NCI-H460; assay: Cell cycle arrest in human NCI-H460 cells assessed as downregulation of cyclin D1 expression at 10 to 30 uM by Western blot analysis; type: functional, cell-based; conditions: dose 10-30 µM
[6] = tested on: A549; assay: Induction of apoptosis in human A549 cells assessed as viable cells at 10 uM incubated for 24 hrs by Annexin V-FITC/PI staining based flow cytometric analysis (reference value: 96.29 %); type: functional; conditions: read-out: Activity
[7] = tested on: A549; assay: Induction of apoptosis in human A549 cells assessed as necrotic cells at 10 uM incubated for 24 hrs by Annexin V-FITC/PI staining based flow cytometric analysis (reference value: 0.97 %); type: functional
[8] = tested on: A549; assay: Induction of apoptosis in human A549 cells assessed as viable cells at 30 uM incubated for 24 hrs by Annexin V-FITC/PI staining based flow cytometric analysis (reference value: 96.29 %); type: functional; conditions: read-out: Activity
[9] = tested on: NCI-H460; assay: Induction of apoptosis in human NCI-H460 cells assessed as early apoptotic cells at 10 uM incubated for 24 hrs by Annexin V-FITC/PI staining based flow cytometric analysis (reference value: 3.22 %); type: functional
[10] = tested on: NCI-H460; assay: Induction of apoptosis in human NCI-H460 cells assessed as late apoptotic cells at 10 uM incubated for 24 hrs by Annexin V-FITC/PI staining based flow cytometric analysis (reference value: 4.15 %); type: functional
[11] = tested on: A549; assay: Induction of apoptosis in human A549 cells assessed as upregulation of cleaved caspase 3 expression at 10 to 30 uM by Western blot analysis; type: functional, cell-based; conditions: dose 10-30 µM
[12] = tested on: NCI-H460; assay: Induction of apoptosis in human NCI-H460 cells assessed as decrease in Bcl2 expression at 10 to 30 uM by Western blot analysis; type: functional, cell-based; conditions: dose 10-30 µM
[13] = tested on: A549; assay: Induction of autophagy in human A549 cells assessed as increase in fluorescence intensity of anti-LC3 incubated for 48 hrs by immunofluorescence staining based analysis; type: functional, cell-based; conditions: dose 10-30 µM
[14] = tested on: A549; assay: Induction of autophagy in human A549 cells assessed as increase in LC3-II expression at 10 to 30 uM incubated for 24 hrs by Western blot analysis; type: functional, cell-based; conditions: dose 10-30 µM
[15] = tested on: A549; assay: Induction of autophagy in human A549 cells assessed as increase in Atg5 expression at 10 to 30 uM incubated for 24 hrs by Western blot analysis; type: functional, cell-based; conditions: dose 10-30 µM
[16] = tested on: NCI-H460; assay: Induction of autophagy in human NCI-H460 cells assessed as increase in LC3-II expression at 10 to 30 uM incubated for 24 hrs by Western blot analysis; type: functional, cell-based; conditions: dose 10-30 µM
[17] = tested on: NCI-H460; assay: Induction of autophagy in human NCI-H460 cells assessed as increase in Atg5 expression at 10 to 30 uM incubated for 24 hrs by Western blot analysis; type: functional, cell-based; conditions: dose 10-30 µM
[18] = tested on: A549; assay: Inhibition of Akt/mTOR signalling pathway in human A549 cells assessed as decrease in phosphorylated Akt expression by Western blot analysis; type: cell-based; conditions: dose 10-30 µM
[19] = tested on: A549; assay: Inhibition of Akt/mTOR signalling pathway in human A549 cells assessed as decrease in phosphorylated P70 S6K expression by Western blot analysis; type: cell-based; conditions: dose 10-30 µM
[20] = tested on: A549; assay: Inhibition of Akt/mTOR signalling pathway in human A549 cells assessed as decrease in c-myc expression by Western blot analysis; type: cell-based; conditions: dose 10-30 µM
[21] = tested on: NCI-H460; assay: Inhibition of Akt/mTOR signalling pathway in human NCI-H460 cells assessed as decrease in phosphorylated Akt expression by Western blot analysis; type: cell-based; conditions: dose 10-30 µM
[22] = tested on: NCI-H460; assay: Inhibition of Akt/mTOR signalling pathway in human NCI-H460 cells assessed as decrease in phosphorylated P70 S6k expression by Western blot analysis; type: cell-based; conditions: dose 10-30 µM
[23] = tested on: A549; assay: Inhibition of Akt/mTOR signaling pathway in human A549 cells assessed as decrease in mTOR expression in presence of temsirolimus by Western blot analysis; type: cell-based
[24] = tested on: A549; assay: Inhibition of Akt/mTOR signaling pathway in human A549 cells assessed as decrease in phosphorylated PRAS40 expression in presence of temsirolimus by Western blot analysis; type: cell-based
[25] = tested on: NCI-H460; assay: Inhibition of Akt/mTOR signaling pathway in human NCI-H460 cells assessed as decrease in phosphorylated 4EBP1 expression in presence of temsirolimus by Western blot analysis; type: cell-based
[26] = tested on: A549; assay: Antiproliferative activity against human A549 cells assessed as inhibition of cell proliferation in presence of temsirolimus by CCK8 assay; type: functional, cell-based
[27] = Toxicity in Balb/c nude mouse xenografted with human A549 cells assessed as reduction in body weight at 7.5 to 15 mg/kg, ip administered for 14 days; type: organism-based; conditions: in vivo, 336 h, dose 7.5-15 mg/kg, time 14 day
[28] = tested on: NCI-H460; assay: Induction of apoptosis in human NCI-H460 cells assessed as viable cells at 30 uM incubated for 24 hrs by Annexin V-FITC/PI staining based flow cytometric analysis (reference value: 91.95 %); type: functional; conditions: read-out: Activity
[29] = tested on: NCI-H460; assay: Induction of apoptosis in human NCI-H460 cells assessed as early apoptotic cells at 30 uM incubated for 24 hrs by Annexin V-FITC/PI staining based flow cytometric analysis (reference value: 3.22 %); type: functional
[30] = tested on: NCI-H460; assay: Induction of apoptosis in human NCI-H460 cells assessed as late apoptotic cells at 30 uM incubated for 24 hrs by Annexin V-FITC/PI staining based flow cytometric analysis (reference value: 4.15 %); type: functional

N#C[Se]CCCNC(=O)c1cccnc1
Activity [1]: inactive | inhibition [2]: Active | Activity [3]: 75.43% | Activity [4]: Active | Activity [5]: Active; G1 Phase Cell Cycle Arrest Observed | viability at 10 µM [6]: 84.8% | Activity [7]: 3.03% | viability at 30 µM [8]: 75.9% | Activity [9]: 5.81% | Activity [10]: 8.98% | Activity [11]: Active | Activity [12]: Active | Activity [13]: Dose-dependent-effect | Activity [14]: Active | Activity [15]: Active | Activity [16]: Active | Activity [17]: Active | inhibition [18]: Dose-dependent-effect; Inhibitory Ability Of Compound Is Comparable To Temsirolimus | inhibition [19]: Dose-dependent-effect; Inhibitory Ability Of Compound Is Comparable To Temsirolimus | inhibition [20]: Dose-dependent-effect; Inhibitory Ability Of Compound Is Comparable To Temsirolimus | inhibition [21]: Dose-dependent-effect; Inhibitory Ability Of Compound Is Comparable To Temsirolimus | inhibition [22]: Dose-dependent-effect; Inhibitory Ability Of Compound Is Comparable To Temsirolimus | inhibition [23]: Active | inhibition [24]: Active | inhibition [25]: Active | Activity [26]: Active | Activity [27]: Non-toxic | viability at 30 µM [28]: 74.7% | Activity [29]: 6.3% | Activity [30]: 13.81%
